Assay [1] has as its system asexual NF54 strain P. falciparum. Kind of assay: Plasmodium falciparum asexual blood stages proliferation assay with SYBR Green read-out. To be noted: for IC50 / anti-malarial activity (in words): compound alone, 10% human serum; for IC50: NF54 asexual blood stages, 72 hours, relative to DHA control, read-out: Anti-malarial activity IC50; for anti-malarial activity (in words): highest concentration tested 100 μM; for change of anti-malarial potency upon vanin inhibition: combined with 5 μM of vanin inhibitor CXP14.1-060. The assay is classed as cell-based. How it is done: The asexual stages of the NF54 strain P. falciparum were cultured as previously described, utilizing a shaker system with automated media change twice a day, parasites were kept in continuous culture within adapted Erlenmeyer flasks. Erythrocytes were refreshed every two or three days to adjust haematocrit to 5% and parasitaemia to 0.5%. Human erythrocytes (blood type A) were obtained from healthy blood donors, with no history of malaria. Culture media consisted of RPMI 1640 with HEPES [5.94 g/l, hypoxanthine [0.05 g/l], 10% (v/v) pooled human serum (blood type A) obtained similarly to erythrocytes, and 0,2% (w/v) sodium bicarbonate. Temperature was set to 37°C and a low oxygen gas mixture was constantly flushed over the culture maintaining a stable atmosphere of 3% O2, 4% CO2, and 93% N2.
A non-synchronous asexual NF54 strain P. falciparum culture was adjusted to a parasitaemia of 0.5-1% and a haematocrit of 1-5%. The compound dilution curves were prepared in dimethylsulphoxide (DMSO) from 100 mM to 10 μM at half/log step dilutions. The established anti-malarial dihydroartemisinin (DHA) was used as a positive control and diluted in DMSO from 1 mM to 100 nM at half/log step dilutions. The DMSO dilutions were 500-fold diluted in growth medium to yield a final DMSO concentration of 0.2% (v/v), and final compound concentrations from 200 μM to 20 nM (2 μM to 200 pM for DHA). Higher concentrations for the experimental compounds would not have been possible to achieve due to limitations in final DMSO concentration (0.1% v/v). Fifty μl of each compound dilution was combined with 50 μl of parasite culture in a black, clear-bottomed or entirely black 96-well plate. The outermost wells were filled with sterile water to prevent evaporation. DHA at a concentration of 1 μM and 0.1% DMSO (negative control) were used to determine the assay window. The 96-well plates were incubated for 72 hours in a candle jar at 37°C. Read-out was done using the DNA-marker SYBR Green as described previously. All assays were conducted at least in triplicate.
When combining two compounds in the same well the conditions were otherwise similar to the single compound assays, however the final DMSO concentration was 0.2%, which was also adjusted for the positive and negative controls and was not found to cause differences in results obtained with single compounds in assay containing 0.1% DMSO. The pantothenamide phenethyl-Pan was combined with a 10^−7 to 10^−5 M concentration curve of CXP14.1-060; the other pantothenamides were combined only with a 5 μM concentration of the same vanin inhibitor. The pantothenone vanin inhibitor RR8 was additionally combined with 20 μM, 6.3 μM, 2.0 μM, and 0.6 μM of pantothenate to explore potential competition for the same molecular target in P. falciparum. All assays were conducted at least in triplicate.
Statistical analyses were performed using GraphPad Prism 5. This includes producing inhibition curves, normalizing them to percentage of inhibition, calculation of IC50 values, correlation coefficients (Spearman non-parametric correlation), and Schild analyses. The IC50 is the concentration of the compound in question at which the compound reaches 50% inhibition relative to the DHA control curve, and is calculated using the interpolate function in GraphPad Prism 5.

The target in assay [2] is T1, vanin enzymatic activity in human serum (Homo sapiens, UniProt O95497).
T1 sequence (O95497 22-491): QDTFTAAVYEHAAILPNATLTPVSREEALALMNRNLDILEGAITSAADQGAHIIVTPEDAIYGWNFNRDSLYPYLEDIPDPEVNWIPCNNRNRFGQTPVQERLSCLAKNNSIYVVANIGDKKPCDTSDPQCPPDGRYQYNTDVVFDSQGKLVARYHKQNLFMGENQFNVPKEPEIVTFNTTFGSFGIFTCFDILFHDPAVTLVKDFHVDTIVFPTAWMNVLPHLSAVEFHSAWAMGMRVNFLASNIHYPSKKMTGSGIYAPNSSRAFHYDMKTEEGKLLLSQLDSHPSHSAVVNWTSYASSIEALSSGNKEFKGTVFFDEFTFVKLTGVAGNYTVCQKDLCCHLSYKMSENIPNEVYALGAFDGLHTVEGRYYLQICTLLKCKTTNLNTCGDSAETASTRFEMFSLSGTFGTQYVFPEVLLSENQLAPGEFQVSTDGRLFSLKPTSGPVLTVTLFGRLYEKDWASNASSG
Kind of assay: Vanin/pantetheinase activity assay with AMC substrate and fluorescence readout. The class given is biochemical.

Another assay concerns P. falciparum. Also noted: method as in PMID 23405100. The conditions noted are these: 'aged' medium; cited from earlier work.
Setting [3] is: Plasmodium falciparum, NF54, 72 h.

Structures are written as SMILES. Where two headings read alike, the source gives them in different places.

Usually IC50 stands for the midpoint of a concentration-inhibition curve.

In the case of `CC(C)(CO)[C@@H](O)C(=O)N/C=C/C(=O)O` [CJ-15,801], the IC50 in assay [1] (setting [3]) was over 100 µM. The “anti-malarial activity (in words)” value in assay [1] is “poor inhibitor of P. falciparum growth”.

As to `CC(C)(CO)[C@@H](O)C(=O)NCCC(O)Cc1ccccc1` (stereo partly shown) [CXP14.1-034], the half-inhibitory concentration (IC50) in assay [1] (setting [3]) is 24.1 µM.

Consider `CC(C)(C)c1ccc(CC(=O)CCNC(=O)[C@H](O)C(C)(C)CO)cc1` [CXP14.1-060], for which the half-maximal inhibitory concentration (IC50) in assay [1] (setting [3]) is over 100 µM. Further, the “anti-malarial activity (in words)” value in assay [1] is “no anti-malarial activity”. In addition, the “potency against human vanins (in words)” value in assay [2] is recorded as “nanomolar potency”.

Regarding `C[C@H]1[C@@H](O)O[C@@H]2O[C@@]3(C)CC[C@H]4[C@H](C)CC[C@@H]1[C@@]24OO3` [DHA, dihydroartemisinin], the “change of anti-malarial potency upon vanin inhibition” value in assay [1] is on record as “did not change”. Besides, the “Anti-malarial IC50 (in words)” value in assay [1] (reference compound) is listed as “low nanomolar range”.

For `CCCCCNC(=O)CCNC(=O)[C@H](O)C(C)(C)CO` [N5-Pan], in assay [1] (setting [3]), the 50% inhibitory concentration (IC50) was at least 50 µM. Moreover, in assay [1], the “change of anti-malarial potency upon vanin inhibition” value is recorded as “increased” and the half-maximal inhibitory concentration (IC50) turned out to be 45.1 µM.

Take `CCCCCCCNC(=O)CCNC(=O)[C@H](O)C(C)(C)CO` [N7-Pan]: the IC50 in assay [1] (setting [3]) was at least 50 µM. Besides, in assay [1], the “change of anti-malarial potency upon vanin inhibition” value was “increased” and the IC50 was 79 µM.

Turning to `CCCCCCCCCNC(=O)CCNC(=O)[C@H](O)C(C)(C)CO` [N9-Pan], the 50% inhibitory concentration (IC50) in assay [1] (setting [3]) was about 15 µM. In assay [1], the “change of anti-malarial potency upon vanin inhibition” value is reported as “not increased” and the IC50 is 14.6 µM.

On to `CC(C)(CO)[C@@H](O)C(=O)NCCCO` [Pantothenol], for which the concentration for half-maximal inhibition (IC50) in assay [1] (setting [3]) is over 100 µM. In addition, in assay [1], the “anti-malarial activity (in words)” value is recorded as “no anti-malarial activity”.

As for `CC(C)(CO)[C@@H](O)C(=O)NCCC(=O)NCCc1ccccc1` [Phenethyl-Pan], the IC50 was at least 50 µM in assay [1] (setting [3]), 98.2 µM in assay [1] and 0.02 µM with P. falciparum. Also, in assay [1] (in the presence of 10 μM of vanin inhibitor CXP14.1-060, comparable to DHA), the “efficacy of parasite growth inhibition” value is “full inhibition of parasite growth”.

On to `C=CCCC(=O)CCNC(=O)[C@H](O)C(C)(C)CO` [RR2], for which the concentration for half-maximal inhibition (IC50) in assay [1] (setting [3]) was found to be 2.6 µM.

Turning to `CC(C)(CO)[C@@H](O)C(=O)NCCC(=O)CCc1ccccc1` [RR7], the IC50 in assay [1] (setting [3]) was 7.7 µM.

In the case of `CC(C)(CO)[C@@H](O)C(=O)NCCC(=O)CCCc1ccccc1` [RR8], the IC50 in assay [1] (setting [3]) came to 2.2 µM. In assay [1] (RR8 dilution curve combined with 20 μM, 6.3 μM, 2.0 μM and 0.6 μM of pantothenate), the “slope of the line in the Schild Plot” value came out at 1.087 ± 0.089. In addition, the “shift of IC50 on addition of pantothenate” value in assay [1] (addition of increasing concentrations of pantothenate) is listed as “increase in the IC50”.

As for `CC(C)(CO)[C@@H](O)C(=O)NCCC(=O)c1ccccc1` [SN 12,601], the 50% inhibitory concentration (IC50) in assay [1] (setting [3]) was 6.1 µM. Moreover, the “anti-malarial activity (in words)” value in assay [1] was “moderate activity”.

With `CC(C)(CO)[C@@H](O)C(=O)NCCS(=O)(=O)Nc1ccccc1` [SN 14,621], the concentration for half-maximal inhibition (IC50) in assay [1] (setting [3]) amounted to 33.6 µM. Also, the “anti-malarial activity (in words)” value in assay [1] is “moderate activity”.

Consider `CC(C)(CO)[C@@H](O)C(=O)NCCS(=O)(=O)Nc1ccc(Cl)cc1` [SN 14,622], for which the IC50 in assay [1] (setting [3]) stood at 7.4 µM. Moreover, the “anti-malarial activity (in words)” value in assay [1] was “moderate activity”.

Values taken from paper PMC4425855, “Novel pantothenate derivatives for anti-malarial chemotherapy” (Malaria Journal, 2015).
